Laboratory results as given in patent US7598271B1, “Crystalline paroxetine methane sulfonate” (Noven Therapeutics, LLC, priority 1997, dated 2009).
Structures can show the parent of a compound that is named as a salt. Where two headings read alike, the source gives them in different places.

Assays:
[1] = Hygroscopicity test of paroxetine salts (40° C., 75% rel. hum); assay type: physicochemical
Excerpt: (§1) In the following tables 2 and 3, examples of results of hygroscopicity tests and stability tests (in comparison with known salts of paroxetine) are presented.

[2] = background statement on known salts; cited from earlier work
[3] = Stability of paroxetine salts by HPLC (total amount of degradation); assay type: physicochemical
Excerpt: as §1

[4] = Solubility of paroxetine salts in water; assay type: physicochemical; details: for solubility: water
[5] = causes undesired colouration during classical wet tabletting; cited from earlier work
[6] = background statement; cited from earlier work

Fc1ccc([C@@H]2CCNC[C@H]2COc2ccc3c(c2)OCO3)cc1 [hydrochloride, paroxetine hydrochloride, reference compound]
water content (in %) at t = 4 weeks [1]: +2.5%

Paroxetine Maleate [reference compound]
stability (in words) [2]: unstable | total amount of degradation by HPLC ([3]; 20° C., 12 months): 0.2%, 12 months | total amount of degradation by HPLC ([3]; 80° C., 5 days): >50%, 5 days

Cc1ccc(S(=O)(=O)O)cc1.Fc1ccc([C@@H]2CCNC[C@H]2COc2ccc3c(c2)OCO3)cc1 [p-toluene sulfonate, Paroxetine p-Toluene Sulfonate]
water content (in %) at t = 0 [1]: 0.70% | water content (in %) at t = 4 weeks [1]: <0.02% | Solubility in 2-Propanol (20° C.): 14 mg/mL | Solubility in 2-Propanol (82° C.): >500 mg/mL | Solubility in Acetone (20° C.): 16 mg/mL | Solubility in Acetone (56° C.): 125 mg/mL | Solubility in Ethanol (20° C.): 50 mg/mL | Solubility in Ethanol (78° C.): >500 mg/mL | Solubility in Ethyl acetate (20° C.): 22 mg/mL | Solubility in Ethyl acetate (77° C.): >500 mg/mL | Solubility in n-Hexane (20° C.): <0.05 mg/mL | Solubility in n-Hexane (69° C.): <0.05 mg/mL | total amount of degradation by HPLC ([3]; 20° C., time not given): not observed | total amount of degradation by HPLC ([3]; 80° C., 3 months): <0.2%, 3 months | Solubility in water ([4]; 20° C.): >1000 mg/mL | Solubility in water ([4]; 50° C.): >1000 mg/mL

Paroxetine Acetate
stability (in words) [2]: unstable

Fc1ccc([C@@H]2CCNC[C@H]2COc2ccc3c(c2)OCO3)cc1 [hydrochloride hemihydrate, paroxetine hydrochloride hemihydrate, reference compound]
photostability (in words) [5]: limited photostability | solubility in water (in words) [6]: only limited solubility in water | solubility ([4]; 20 °C): 4.9 mg/mL | solubility ([4]; 50 °C): 12.6 mg/mL

Fc1ccc([C@@H]2CCNC[C@H]2COc2ccc3c(c2)OCO3)cc1 [hydrochloride anhydrate, paroxetine hydrochloride, reference compound]
Solubility in water ([4]; 20° C., hydrochloride): 8.2 mg/mL | Solubility in water ([4]; 50° C., hydrochloride): 24.2 mg/mL

CS(=O)(=O)O.Fc1ccc([C@@H]2CCNC[C@H]2COc2ccc3c(c2)OCO3)cc1 [methane sulfonate, Paroxetine Methane Sulfonate]
water content (in %) at t = 0 [1]: 0.35% | water content (in %) at t = 4 weeks [1]: +0.04% | Solubility in 2-Propanol (20° C.): 7 mg/mL | Solubility in 2-Propanol (82° C.): 330 mg/mL | Solubility in Acetone (20° C.): 5 mg/mL | Solubility in Acetone (56° C.): 37 mg/mL | Solubility in Ethanol (20° C.): 36 mg/mL | Solubility in Ethanol (78° C.): 250 mg/mL | Solubility in Ethyl acetate (20° C.): 2 mg/mL | Solubility in Ethyl acetate (77° C.): 25 mg/mL | Solubility in n-Hexane (20° C.): <0.05 mg/mL | Solubility in n-Hexane (69° C.): 0.05 mg/mL | total amount of degradation by HPLC ([3]; 20° C., time not given): not observed | total amount of degradation by HPLC ([3]; 80° C., 3 months): <0.2%, 3 months | Solubility in water ([4]; 20° C.): >1000/10 min mg/ml | Solubility in water ([4]; 50° C.): 1300 mg/mL
